Reference: ChEMBL document CHEMBL1201862, “PubChem BioAssay data set” (2004)
Activity calls are given as the source filed them.

Experiments:
Format in all cases: functional
Orexin receptor type 2 = molecular target: T1, Orexin receptor type 2 (Homo sapiens, UniProt O43614); assay: Counterscreen assay for antagonists of the orexin 1 receptor (OX1R; HCRTR1): Homogeneous Time Resolved Fluorescence (HTRF)-based cell-based dose response assay for antagonists of the orexin 2 receptor (OX2R; HCRTR2), run by assay provider.
T1 sequence (O43614 whole entry): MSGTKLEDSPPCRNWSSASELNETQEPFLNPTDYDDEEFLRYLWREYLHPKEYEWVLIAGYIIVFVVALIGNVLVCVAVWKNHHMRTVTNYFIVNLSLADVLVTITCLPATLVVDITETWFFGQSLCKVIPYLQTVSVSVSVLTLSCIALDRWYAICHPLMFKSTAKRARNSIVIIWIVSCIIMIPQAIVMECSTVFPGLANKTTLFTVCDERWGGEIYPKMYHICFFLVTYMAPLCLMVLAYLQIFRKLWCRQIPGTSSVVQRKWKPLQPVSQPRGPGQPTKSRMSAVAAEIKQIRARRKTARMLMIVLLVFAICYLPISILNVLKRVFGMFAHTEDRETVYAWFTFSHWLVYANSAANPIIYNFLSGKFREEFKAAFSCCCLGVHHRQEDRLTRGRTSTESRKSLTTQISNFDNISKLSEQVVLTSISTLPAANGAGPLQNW

[1] = molecular target: T2, Sentrin-specific protease 8 (Homo sapiens, UniProt Q96LD8);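 note: luminescence read-out of SENP8 inhibition, dose-response confirmation following an ultra-high-throughput screen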
T2 sequence (Q96LD8 whole entry): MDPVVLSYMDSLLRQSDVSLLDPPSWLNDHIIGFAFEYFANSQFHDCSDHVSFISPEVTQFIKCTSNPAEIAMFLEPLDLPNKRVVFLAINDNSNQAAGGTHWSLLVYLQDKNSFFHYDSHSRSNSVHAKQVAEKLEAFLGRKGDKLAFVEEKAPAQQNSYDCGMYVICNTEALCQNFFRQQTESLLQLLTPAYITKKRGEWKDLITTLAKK

[2] = molecular target: T3, Orexin/Hypocretin receptor type 1 (Homo sapiens, UniProt O43613); assay: Fluorescence-based cell-based high throughput dose response assay for antagonists of the orexin 1 receptor (OX1R; HCRTR1). [Related pubchem assays (depositor defined):AID434989, AID435008, AID463079, AID485270, AID492963, AID492964, AID492965, AID493232, AID504717, AID504718]
T3 sequence (O43613 whole entry): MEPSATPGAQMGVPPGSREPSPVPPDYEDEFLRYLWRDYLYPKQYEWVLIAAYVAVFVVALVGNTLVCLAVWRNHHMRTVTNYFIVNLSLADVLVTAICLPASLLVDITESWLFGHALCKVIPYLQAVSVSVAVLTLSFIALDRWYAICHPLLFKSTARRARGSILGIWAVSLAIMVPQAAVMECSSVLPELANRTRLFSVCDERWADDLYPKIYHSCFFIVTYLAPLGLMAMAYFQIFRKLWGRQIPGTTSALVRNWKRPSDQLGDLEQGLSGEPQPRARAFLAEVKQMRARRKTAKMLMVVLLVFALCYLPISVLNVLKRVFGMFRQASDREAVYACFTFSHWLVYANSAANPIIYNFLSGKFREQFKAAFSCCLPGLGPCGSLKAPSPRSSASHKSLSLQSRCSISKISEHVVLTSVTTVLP

[3] = molecular target: T4, Sentrin-specific protease 6 (Homo sapiens, UniProt Q9GZR1);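 note: Luminescence-based dose-response confirmatory assay of SENP6 inhibition, following up an ultra-high-throughput screen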
T4 sequence (Q9GZR1 whole entry): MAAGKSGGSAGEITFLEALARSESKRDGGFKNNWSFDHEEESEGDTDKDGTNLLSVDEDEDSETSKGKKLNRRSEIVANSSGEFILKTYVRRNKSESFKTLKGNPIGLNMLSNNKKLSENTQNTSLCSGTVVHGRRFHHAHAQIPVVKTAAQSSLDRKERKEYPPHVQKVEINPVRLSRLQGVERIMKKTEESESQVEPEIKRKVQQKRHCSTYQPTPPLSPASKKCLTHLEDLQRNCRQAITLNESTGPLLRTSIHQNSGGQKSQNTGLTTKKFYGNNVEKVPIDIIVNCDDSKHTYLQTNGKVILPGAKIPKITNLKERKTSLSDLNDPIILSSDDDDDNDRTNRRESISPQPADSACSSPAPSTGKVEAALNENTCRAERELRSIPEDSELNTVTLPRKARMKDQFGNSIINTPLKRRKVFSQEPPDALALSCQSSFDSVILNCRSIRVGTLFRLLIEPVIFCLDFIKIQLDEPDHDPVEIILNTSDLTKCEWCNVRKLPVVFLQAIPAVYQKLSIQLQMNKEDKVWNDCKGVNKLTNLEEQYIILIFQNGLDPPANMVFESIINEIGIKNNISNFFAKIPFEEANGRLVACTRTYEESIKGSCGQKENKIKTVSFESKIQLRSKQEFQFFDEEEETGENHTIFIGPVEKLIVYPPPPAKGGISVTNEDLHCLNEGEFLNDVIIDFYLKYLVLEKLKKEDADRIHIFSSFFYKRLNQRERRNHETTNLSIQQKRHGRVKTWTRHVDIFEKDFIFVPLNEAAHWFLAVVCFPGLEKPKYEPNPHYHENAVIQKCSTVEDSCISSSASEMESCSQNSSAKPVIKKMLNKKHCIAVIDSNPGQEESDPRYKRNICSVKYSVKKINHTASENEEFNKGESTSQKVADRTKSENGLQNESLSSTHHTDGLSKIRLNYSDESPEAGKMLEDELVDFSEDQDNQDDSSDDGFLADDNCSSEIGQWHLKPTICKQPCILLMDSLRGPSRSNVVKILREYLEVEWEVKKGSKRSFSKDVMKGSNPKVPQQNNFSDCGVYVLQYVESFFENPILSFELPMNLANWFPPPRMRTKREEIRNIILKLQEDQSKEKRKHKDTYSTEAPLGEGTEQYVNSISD

[4] = Counterscreen for antagonists of the orexin 1 receptor (OX1R; HCRTR1): Fluorescence-based cell-based high throughput dose response assay to identify antagonists of the parental CHO cell line. [Related pubchem assays (depositor defined):AID434989, AID435008, AID463079, AID485270, AID492963, AID492964, AID492965, AID493232, AID504699, AID504701]
[5] = molecular target: Protein kinase C theta type (Homo sapiens, UniProt Q04759); assay: Navigating the Kinome. Panel member name: PRKCQ
Protein kinase C theta type, sequence (Q04759 whole entry): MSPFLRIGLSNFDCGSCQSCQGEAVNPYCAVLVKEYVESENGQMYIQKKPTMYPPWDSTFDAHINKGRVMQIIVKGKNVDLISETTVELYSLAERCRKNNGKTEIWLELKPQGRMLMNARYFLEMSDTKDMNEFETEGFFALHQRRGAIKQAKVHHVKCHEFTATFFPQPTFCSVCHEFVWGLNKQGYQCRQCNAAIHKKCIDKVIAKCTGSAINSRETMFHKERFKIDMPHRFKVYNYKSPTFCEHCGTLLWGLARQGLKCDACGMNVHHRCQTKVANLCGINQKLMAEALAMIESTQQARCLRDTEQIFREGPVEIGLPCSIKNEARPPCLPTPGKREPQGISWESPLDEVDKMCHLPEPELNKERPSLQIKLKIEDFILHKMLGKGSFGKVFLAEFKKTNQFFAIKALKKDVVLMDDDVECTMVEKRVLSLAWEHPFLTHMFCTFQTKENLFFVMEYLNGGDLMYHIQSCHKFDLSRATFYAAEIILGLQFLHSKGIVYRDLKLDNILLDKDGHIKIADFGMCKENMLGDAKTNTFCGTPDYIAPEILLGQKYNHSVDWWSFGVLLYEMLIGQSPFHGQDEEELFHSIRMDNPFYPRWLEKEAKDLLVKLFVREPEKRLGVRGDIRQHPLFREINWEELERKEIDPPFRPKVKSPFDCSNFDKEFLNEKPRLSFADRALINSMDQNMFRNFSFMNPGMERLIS

Activated CDC42 kinase 1 = Activated CDC42 kinase 1 (Homo sapiens, UniProt Q07912); assay: Navigating the Kinome. Panel member name: ACK1
Activated CDC42 kinase 1, sequence (Q07912 whole entry): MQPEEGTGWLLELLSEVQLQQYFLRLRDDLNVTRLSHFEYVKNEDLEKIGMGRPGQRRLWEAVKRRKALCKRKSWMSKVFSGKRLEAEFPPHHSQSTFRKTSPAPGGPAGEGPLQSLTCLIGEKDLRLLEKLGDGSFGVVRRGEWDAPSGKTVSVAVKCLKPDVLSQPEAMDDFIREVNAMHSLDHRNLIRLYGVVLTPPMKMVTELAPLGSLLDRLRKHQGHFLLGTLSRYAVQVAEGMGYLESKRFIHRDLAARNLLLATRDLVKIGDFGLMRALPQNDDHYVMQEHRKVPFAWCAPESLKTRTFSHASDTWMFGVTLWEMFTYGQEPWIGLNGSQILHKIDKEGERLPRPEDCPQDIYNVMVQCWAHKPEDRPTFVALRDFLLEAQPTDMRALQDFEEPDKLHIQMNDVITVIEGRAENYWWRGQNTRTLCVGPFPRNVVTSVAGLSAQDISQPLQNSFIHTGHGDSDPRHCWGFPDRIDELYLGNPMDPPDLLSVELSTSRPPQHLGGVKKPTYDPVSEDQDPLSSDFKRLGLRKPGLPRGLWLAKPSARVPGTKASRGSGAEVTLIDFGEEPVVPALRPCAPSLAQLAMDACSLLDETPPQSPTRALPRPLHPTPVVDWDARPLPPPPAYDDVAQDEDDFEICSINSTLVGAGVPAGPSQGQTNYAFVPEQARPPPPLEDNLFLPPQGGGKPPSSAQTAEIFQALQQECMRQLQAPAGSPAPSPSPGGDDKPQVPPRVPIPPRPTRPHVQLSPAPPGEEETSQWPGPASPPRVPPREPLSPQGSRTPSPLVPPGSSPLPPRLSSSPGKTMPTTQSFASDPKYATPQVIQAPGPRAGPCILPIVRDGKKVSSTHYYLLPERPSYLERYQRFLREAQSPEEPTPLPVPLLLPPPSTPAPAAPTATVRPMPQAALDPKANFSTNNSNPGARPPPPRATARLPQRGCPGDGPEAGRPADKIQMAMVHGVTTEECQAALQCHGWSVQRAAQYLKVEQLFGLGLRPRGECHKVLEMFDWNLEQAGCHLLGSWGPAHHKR

[6] = molecular target: Hepatocyte growth factor receptor (Homo sapiens, UniProt P08581);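 note: kinase panel profiling across the kinome, with MET as the panel member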
[7] = molecular target: Ribosomal protein S6 kinase alpha-3 (Homo sapiens, UniProt P51812);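 note: measured within a kinome-wide profiling panel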
Ribosomal protein S6 kinase alpha-3, sequence (P51812 whole entry): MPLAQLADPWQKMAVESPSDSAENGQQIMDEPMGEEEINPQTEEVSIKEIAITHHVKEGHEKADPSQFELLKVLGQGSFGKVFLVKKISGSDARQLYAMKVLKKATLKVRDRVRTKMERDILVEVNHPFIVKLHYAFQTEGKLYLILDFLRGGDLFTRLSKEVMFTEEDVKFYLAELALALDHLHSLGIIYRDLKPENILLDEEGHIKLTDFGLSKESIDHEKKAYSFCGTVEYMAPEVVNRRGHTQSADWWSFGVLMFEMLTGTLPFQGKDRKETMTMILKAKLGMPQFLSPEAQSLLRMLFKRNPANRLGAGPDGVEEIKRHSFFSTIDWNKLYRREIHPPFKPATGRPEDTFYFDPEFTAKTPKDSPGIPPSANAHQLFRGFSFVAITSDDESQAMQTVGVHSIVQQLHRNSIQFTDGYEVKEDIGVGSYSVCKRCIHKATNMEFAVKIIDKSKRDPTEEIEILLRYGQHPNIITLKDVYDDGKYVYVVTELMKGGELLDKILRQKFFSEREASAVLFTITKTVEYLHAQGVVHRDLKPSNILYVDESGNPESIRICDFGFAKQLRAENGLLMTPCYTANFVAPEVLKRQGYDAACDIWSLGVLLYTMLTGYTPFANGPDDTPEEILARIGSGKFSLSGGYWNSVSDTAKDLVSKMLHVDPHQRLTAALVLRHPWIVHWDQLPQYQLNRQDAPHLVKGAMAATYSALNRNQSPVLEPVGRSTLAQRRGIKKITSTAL

[8] = molecular target: Serine/threonine-protein kinase Nek2 (Homo sapiens, UniProt P51955)
Serine/threonine-protein kinase Nek2, sequence (P51955 whole entry): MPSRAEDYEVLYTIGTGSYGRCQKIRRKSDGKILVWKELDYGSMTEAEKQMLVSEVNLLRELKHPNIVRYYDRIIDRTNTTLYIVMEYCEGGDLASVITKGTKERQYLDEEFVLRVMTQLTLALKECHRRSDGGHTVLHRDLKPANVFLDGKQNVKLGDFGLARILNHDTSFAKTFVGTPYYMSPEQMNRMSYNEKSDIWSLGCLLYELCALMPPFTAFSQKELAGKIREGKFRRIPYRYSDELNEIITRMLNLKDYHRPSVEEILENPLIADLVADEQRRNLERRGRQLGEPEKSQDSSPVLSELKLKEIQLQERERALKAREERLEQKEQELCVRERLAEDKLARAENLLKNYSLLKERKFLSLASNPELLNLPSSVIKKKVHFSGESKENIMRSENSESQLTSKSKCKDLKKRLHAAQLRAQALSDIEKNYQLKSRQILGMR

[9] = molecular target: Vascular endothelial growth factor receptor 1 (Homo sapiens, UniProt P17948);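 note: measured within a kinome-wide profiling panel, FLT1 as the panel member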
Vascular endothelial growth factor receptor 1, sequence (P17948 whole entry): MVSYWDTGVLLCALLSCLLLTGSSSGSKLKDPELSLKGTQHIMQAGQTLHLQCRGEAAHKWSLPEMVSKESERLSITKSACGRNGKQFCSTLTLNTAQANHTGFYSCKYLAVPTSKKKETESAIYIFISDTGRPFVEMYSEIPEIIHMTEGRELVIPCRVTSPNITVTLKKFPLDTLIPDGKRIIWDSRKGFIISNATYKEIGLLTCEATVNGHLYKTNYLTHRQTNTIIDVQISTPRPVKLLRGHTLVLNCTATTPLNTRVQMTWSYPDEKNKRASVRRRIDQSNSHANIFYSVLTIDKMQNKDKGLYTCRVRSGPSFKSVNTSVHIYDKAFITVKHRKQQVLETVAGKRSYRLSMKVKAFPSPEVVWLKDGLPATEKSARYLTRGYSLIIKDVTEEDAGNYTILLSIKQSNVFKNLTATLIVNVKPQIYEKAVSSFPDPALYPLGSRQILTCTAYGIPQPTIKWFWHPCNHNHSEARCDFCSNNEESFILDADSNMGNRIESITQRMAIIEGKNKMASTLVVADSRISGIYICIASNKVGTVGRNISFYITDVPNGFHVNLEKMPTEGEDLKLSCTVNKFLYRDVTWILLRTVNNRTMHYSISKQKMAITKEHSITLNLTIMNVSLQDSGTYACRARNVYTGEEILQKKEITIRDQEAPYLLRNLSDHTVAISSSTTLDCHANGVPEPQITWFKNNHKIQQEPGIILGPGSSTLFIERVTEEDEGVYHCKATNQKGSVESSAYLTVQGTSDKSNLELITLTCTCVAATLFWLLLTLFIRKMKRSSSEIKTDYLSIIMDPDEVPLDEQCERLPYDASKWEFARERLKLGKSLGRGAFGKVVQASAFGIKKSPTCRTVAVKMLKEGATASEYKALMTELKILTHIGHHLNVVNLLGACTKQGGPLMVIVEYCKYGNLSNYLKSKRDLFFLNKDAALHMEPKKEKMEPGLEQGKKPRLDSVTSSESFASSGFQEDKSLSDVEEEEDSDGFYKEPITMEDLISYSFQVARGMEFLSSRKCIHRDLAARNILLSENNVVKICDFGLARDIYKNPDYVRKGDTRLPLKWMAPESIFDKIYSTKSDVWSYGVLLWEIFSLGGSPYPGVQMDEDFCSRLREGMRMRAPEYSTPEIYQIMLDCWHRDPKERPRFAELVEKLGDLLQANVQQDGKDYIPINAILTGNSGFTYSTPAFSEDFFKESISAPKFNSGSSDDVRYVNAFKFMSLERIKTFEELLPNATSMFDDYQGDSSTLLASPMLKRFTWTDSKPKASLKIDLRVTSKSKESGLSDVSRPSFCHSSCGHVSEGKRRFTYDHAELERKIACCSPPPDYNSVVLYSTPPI

[10] = molecular target: Serine/threonine-protein kinase PAK 4 (Homo sapiens, UniProt O96013);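 note: value obtained within a kinome profiling panel in which PAK4 was one of the panel members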
Aurora kinase B = Aurora kinase B (Homo sapiens, UniProt Q96GD4)
Aurora kinase B, sequence (Q96GD4 whole entry): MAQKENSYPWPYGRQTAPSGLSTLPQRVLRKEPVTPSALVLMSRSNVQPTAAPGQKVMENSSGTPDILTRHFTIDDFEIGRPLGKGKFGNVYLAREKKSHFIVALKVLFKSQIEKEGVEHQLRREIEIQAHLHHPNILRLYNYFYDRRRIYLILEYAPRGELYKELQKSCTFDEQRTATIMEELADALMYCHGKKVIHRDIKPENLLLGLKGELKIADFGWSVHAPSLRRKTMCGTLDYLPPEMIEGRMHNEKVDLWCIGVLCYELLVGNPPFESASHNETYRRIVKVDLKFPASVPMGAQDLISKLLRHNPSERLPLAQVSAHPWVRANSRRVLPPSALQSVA

SMILES: Cc1ccnc2ccc(-c3nc4ccccc4o3)cc12
- IC50 (Orexin receptor type 2): > 50 µM (inactive)
- IC50 [1]: 71 µM (active)
- IC50 [2]: 4.26 µM (active)
- IC50 [3]: 3.65 µM (active)
- IC50 [4]: > 49.8 µM (inactive)

SMILES: O=C(NCCc1cccs1)N1CC=C(c2c[nH]c3ncccc23)CC1
- Ki [5]: > 2.51 µM (inactive)
- Ki (Activated CDC42 kinase 1): > 3.98 µM (inactive)
- Ki [6]: > 2.51 µM (inactive)
- Ki [7]: > 3.98 µM (inactive)
- Ki [8]: > 3.16 µM (inactive)
- Ki [9]: > 3.98 µM (inactive)
- Ki [10]: > 5.01 µM (inactive)
- Ki (Aurora kinase B): > 3.98 µM (inactive)
